Data set [1] is described as follows: Drug metabolism in human liver microsomes assessed as glucuronidation at 30 uM after 10 mins by LC-MS/MS analysis relative to vehicle-treated control in presence of propofol and UDPGA. It counts as ADME. Conditions: with propofol, read-out: Drug metabolism. (Liver microsomes are vesicles of endoplasmic reticulum, rich in cytochrome P450 enzymes.)
Data set [2] in a line: Intrinsic clearance in human intestinal microsomes assessed per mg of protein at 1 to 250 uM after 5 mins in presence of UDPGA. It counts as ADME, Intestine, Microsome.
Data set [3] is described as follows: Drug metabolism in human intestinal microsomes assessed as glucuronidation per mg of protein after 5 mins by Michaelis-Menten plot analysis in presence of UDPGA. It counts as ADME, Intestine, Microsome.
Data set [4] addresses T1, UDP-glucuronosyltransferase 1A8 (Homo sapiens, UniProt Q9HAW9).
T1 sequence (Q9HAW9 whole entry): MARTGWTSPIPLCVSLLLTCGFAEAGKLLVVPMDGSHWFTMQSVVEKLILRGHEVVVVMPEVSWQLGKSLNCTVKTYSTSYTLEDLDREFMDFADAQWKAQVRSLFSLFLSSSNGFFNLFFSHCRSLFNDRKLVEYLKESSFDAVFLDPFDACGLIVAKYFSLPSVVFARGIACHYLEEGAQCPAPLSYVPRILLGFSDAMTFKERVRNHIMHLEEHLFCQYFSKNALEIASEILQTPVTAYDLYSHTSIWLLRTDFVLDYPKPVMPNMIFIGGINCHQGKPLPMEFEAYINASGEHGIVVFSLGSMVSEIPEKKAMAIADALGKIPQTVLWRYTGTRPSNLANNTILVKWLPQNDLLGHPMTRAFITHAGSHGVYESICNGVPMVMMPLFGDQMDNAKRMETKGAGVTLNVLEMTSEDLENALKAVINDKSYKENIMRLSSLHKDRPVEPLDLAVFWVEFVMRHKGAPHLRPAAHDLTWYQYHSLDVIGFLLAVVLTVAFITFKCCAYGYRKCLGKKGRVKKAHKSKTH
Nature of the data set: Activity of human recombinant UGT1A8 expressed in baculovirus-infected insect cells assessed as enzyme-mediated glucuronidation per mg of protein after 10 mins in presence of UDPGA. It counts as ADME.

Data set [5] addresses T2, UDP-glucuronosyltransferase 1A1 (Homo sapiens, UniProt P22309).
T2 sequence (P22309 whole entry): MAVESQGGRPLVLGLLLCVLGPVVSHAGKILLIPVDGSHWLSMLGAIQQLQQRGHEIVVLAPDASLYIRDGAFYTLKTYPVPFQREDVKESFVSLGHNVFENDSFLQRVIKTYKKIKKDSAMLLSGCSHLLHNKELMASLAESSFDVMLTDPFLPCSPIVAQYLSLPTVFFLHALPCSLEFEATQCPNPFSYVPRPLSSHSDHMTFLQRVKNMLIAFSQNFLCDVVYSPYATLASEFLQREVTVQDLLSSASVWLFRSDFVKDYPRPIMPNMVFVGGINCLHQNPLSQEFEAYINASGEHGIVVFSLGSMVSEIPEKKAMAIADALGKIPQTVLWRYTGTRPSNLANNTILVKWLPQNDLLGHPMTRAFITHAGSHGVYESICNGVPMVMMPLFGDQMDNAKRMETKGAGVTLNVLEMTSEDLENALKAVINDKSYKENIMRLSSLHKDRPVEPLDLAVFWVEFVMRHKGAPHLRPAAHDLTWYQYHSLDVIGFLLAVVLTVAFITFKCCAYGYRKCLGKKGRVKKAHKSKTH
Nature of the data set: Activity of human recombinant UGT1A1 expressed in baculovirus-infected insect cells assessed as enzyme-mediated glucuronidation per mg of protein after 10 mins in presence of UDPGA. The format is ADME.

Data set [6] addresses T3, UDP-glucuronosyltransferase 1A4 (Homo sapiens, UniProt P22310).
T3 sequence (P22310 whole entry): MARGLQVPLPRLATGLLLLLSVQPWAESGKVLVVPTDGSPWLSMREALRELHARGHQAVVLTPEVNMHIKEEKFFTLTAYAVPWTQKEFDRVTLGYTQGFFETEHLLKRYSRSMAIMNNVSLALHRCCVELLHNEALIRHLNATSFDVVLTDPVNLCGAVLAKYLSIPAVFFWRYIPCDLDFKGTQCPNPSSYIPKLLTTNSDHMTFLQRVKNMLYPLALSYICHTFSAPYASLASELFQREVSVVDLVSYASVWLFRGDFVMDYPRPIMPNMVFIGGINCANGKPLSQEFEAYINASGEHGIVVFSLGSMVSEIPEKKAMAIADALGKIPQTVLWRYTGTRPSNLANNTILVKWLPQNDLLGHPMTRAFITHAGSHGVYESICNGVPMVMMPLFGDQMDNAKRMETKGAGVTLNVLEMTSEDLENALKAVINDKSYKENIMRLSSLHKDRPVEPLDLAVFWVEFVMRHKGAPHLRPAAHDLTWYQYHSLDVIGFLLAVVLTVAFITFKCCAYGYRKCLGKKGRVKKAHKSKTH
In words: Activity of human recombinant UGT1A4 expressed in baculovirus-infected insect cells assessed as enzyme-mediated glucuronidation per mg of protein after 10 mins in presence of UDPGA. The format is ADME.

Data set [7] addresses T1, UDP-glucuronosyltransferase 1A8. In words: Inhibition of human recombinant UGT1A8 after 10 mins in presence of UDPGA. It counts as ADME.
The subject of data set [8] is Liver microsome. Nature of the data set: Drug metabolism in human liver microsomes assessed as glucuronidation per mg of protein after 10 mins by Michaelis-Menten plot analysis in presence of UDPGA and absence of fatty acid free BSA. The format is ADME.
Data set [9] has as its system Liver microsome. Nature of the data set: Drug metabolism in human liver microsomes assessed as glucuronidation per mg of protein after 10 mins by Michaelis-Menten plot analysis in presence of UDPGA and 0.1% fatty acid free BSA. It counts as ADME.
The subject of data set [10] is Liver microsome. Nature of the data set: Drug metabolism in human liver microsomes assessed as glucuronidation per mg of protein after 10 mins by Michaelis-Menten plot analysis in presence of UDPGA and 0.5% fatty acid free BSA. The format is ADME.
Data set [11] relates to Liver microsome. Nature of the data set: Drug metabolism in human liver microsomes assessed as glucuronidation per mg of protein after 10 mins by Michaelis-Menten plot analysis in presence of UDPGA and 2% fatty acid free BSA. It counts as ADME.
Data set [12] can be described thus: Drug metabolism in human liver microsomes assessed as glucuronidation at 30 uM after 5 mins by LC-MS/MS analysis relative to vehicle-treated control in presence of bilirubin and UDPGA. The format is ADME. Conditions: with bilirubin, read-out: Drug metabolism.
A short description of data set [13]: Fraction unbound in human liver microsomes at 1 to 250 uM after 10 mins by ultrafiltration method in absence of fatty acid free BSA. The format is ADME.
The nature of data set [14]: Fraction unbound in human liver microsomes at 1 to 250 uM after 10 mins by ultrafiltration method in presence of 0.5% fatty acid free BSA. It counts as ADME.
Data set [15] in a line: Drug metabolism in human liver microsomes assessed as glucuronidation after 10 mins by Michaelis-Menten plot analysis in presence of UDPGA and 0.5% fatty acid free BSA. Particulars: read-out: Km(unbound). It counts as ADME.
Data set [16] is described as follows: Drug metabolism in human liver microsomes assessed as glucuronidation after 10 mins by Michaelis-Menten plot analysis in presence of UDPGA and 2% fatty acid free BSA. It counts as ADME. Conditions: read-out: Km(unbound).

For orientation: Vmax means the rate approached at saturating substrate. The term Ki denotes the equilibrium dissociation constant of an inhibitor or competing ligand from its target. In general, fraction unbound refers to the share of the substance not bound to proteins or other matrix. By Km is commonly meant the concentration of substrate that gives half-maximal velocity. Take `COc1ccc(C(=O)Nc2cccc(O)c2NC(=O)c2ccc(N3CCCN(C)CC3)cc2)cc1.O=C(O)CCC(=O)O`: in data set [1], the activity at 10 min, 30 µM was found to be 9%. Further, in [2], the clearance came to 166 µL/min/mg. Moreover, the Vmax turned out to be 4.53 nmol/min/mg in [3]; 3.75 nmol/min/mg in the data set with Liver microsome [8]; 3.25 nmol/min/mg with Liver microsome [9]; 3.25 nmol/min/mg in the data set with Liver microsome [10]; 3.14 nmol/min/mg with Liver microsome [11]. In addition, the Drug metabolism in data set [4] was 0.393 nmol/min/mg; in [5], < 0.01 nmol/min/mg; in data set [6], < 0.01 nmol/min/mg. In [7], the Ki was 354 µM. For the same compound, the activity at 5 min, 30 µM in [12] turned out to be 59.9%. Further, the fraction unbound at 10 min, up to 250 µM in data set [13] worked out at 0.873; in [14], 0.517. Also, the Michaelis-Menten constant (Km) at 10 min in data set [15] turned out to be 17.7 µM; in [16], 17.6 µM.

These data come from ChEMBL document CHEMBL3526122, “Identification of UDP-glucuronosyltransferases responsible for the glucuronidation of darexaban, an oral factor Xa inhibitor, in human liver and intestine” (Drug Metab Dispos, 2012).
